Reference: patent publication US8911805B2, “Calcium preparation and method of production thereof” (Toyo Suisan Kaisha, Ltd., priority 2010, dated 2014)

Tested on: bone loss in low-Ca fed rats
Assay: Oral study of solid preparation of calcium in rats (dry weight of tibia)
Format: in vivo, Crl:CD (SD) rats
Settings: compared to the low calcium fed group; feed Ca content 0.5%, three weeks
Procedure: A test for the improvement, effect of the solid preparation or calcium of the present invention on bone loss in low-Ca fed rats was performed using 5-week-old male Crl:CD (SD) rats. AIN-93M was administered to 4-week old rats. After habituation for one week, various kinds of feeds were administered to the rats for three weeks. As a basic feed, a feed obtained by modifying the content of calcium in AIN-93M to 0.2% (normal feed: 0.5%) was used.
The test groups included the following six groups (one group: eight rats): a low calcium fed group to which a basic feed was administered; a group to which a basic feed containing calcium carbonate at a Ca content of 0.5% was administered; a group to which a basic feed containing freeze-dried powder of a C100P100Ca200K225 solution after aging (at 37° C. for two days) at a Ca content of 0.5% was administered; a group to which a basic feed containing freeze-dried powder of a C200P100Ca200K550 solution after aging (at 37° C. for one day) a Ca content of 0.5% was administered; a group to which a basic feed containing freeze-dried powder of a C100P100Ca200K225 solution before aging at a Ca content of 0.5% was administered; and a group to which basic feed containing calcium lactate at a Ca content of 0.5% was administered.
After three weeks, the dry weight of the extracted tibia was measured. […]

CC(O)C(=O)[O-].CC(O)C(=O)[O-].[Ca+2] (centres unmarked) [calcium lactate]
bone weight (dry weight of the extracted tibia): significantly increased

O=C([O-])[O-].[Ca+2] [calcium carbonate]
bone weight (dry weight of the extracted tibia): significantly increased
